Results on one compound are retold here after US10639287B2, “Compounds for the treatment of mitochondrial diseases” (UNIVERSITE PARIS-SUD, priority 2014, dated 2020).

For series [1], the system named is yeast cells expressing the wild-type MIP1 gene or the mutated mip1^G651S gene. Nature of the series: Respiration (O2 consumption) of yeast cells, HANSATECH electrode. In kind it is cell-based, Saccharomyces cerevisiae. The note with it: 32 μM vs DMSO. As to the method: The respiration rate is the amount of oxygen consumed per unit of time and biological material. It reflects the activity of the oxidative metabolism of the cells.
Oxygen consumption was measured on whole cells using a HANSATECH electrode. The yeast cells expressing the wild-type MIP1 gene or the mutated mip1^G651S gene were cultured for 7-8 generations in a YPE medium (1% Yeast Extract, 0.5% Bacto Peptone, 2% Ethanol) supplemented with DMSO or 32 μM clofilium tosylate at 28° C. with stirring. A volume corresponding to a total of 60 units of DO600 of each culture was centrifuged for 5 min at 3000 g. The pellet was resuspended in YPE in order to have 6.10^5 cells/μl. 50 μL, that is to say 3.10^7 cells, were introduced into the measuring chamber of the HANSATECH electrode, which was maintained at 28° C. The O2 consumption was observed and recorded in real time. The O2 consumption rate was calculated from the linear part of the O2 consumption curve.

Series [2] relates to haploinsufficient TB2143 nematodes (polg-1(ok1458Δ/+)). Nature of the series: Test for resistance to ethidium bromide of haploinsufficient polg-1 nematodes. Particulars: 50 μM, 30 μg/mL ethidium bromide, 4 days. In kind it is in vivo, Caenorhabditis elegans. An excerpt:
Ethidium bromide is an intercalating agent of DNA, especially of mtDNA, rich in adenine and thymidine. At high concentrations it halts the development of the worms at stage L3 (Addo, M. G., Cossard, R., Pichard, D., Obiri-Danso, K., Rötig, A. and Delahodde, A. (2010) Caenorhabditis elegans, a pluricellular model organism to screen new genes involved in mitochondrial genome maintenance. BBA-Mol. Basis Dis., 1802, 765-773. The haploinsufficient TB2143 nematodes (polg-1(ok1458Δ/+)) are highly sensitive to low doses of ethidium bromide (30 μg/mL) with 90% of the larvae halted at stage L3.
Around thirty wild-type larvae or larvae mutated in polg-1 (TB2143 line (polg-1(ok1458Δ/+))) synchronised at stage L1 were deposited on NGM dishes containing 30 μg mL ethidium bromide and either DMSO or 50 μM clofilium tosylate (experiment performed in triplicate). Larval development was examined after 4 days of treatment.

Series [3] concerns mutated mip1 yeast strains. As to the kind of experiment: Production of small colonies in mutated mip1 yeast strains. In kind it is cell-based, Saccharomyces cerevisiae. How it is done:
The rate of small cells in a population represents the cells not breathing due to rearrangements of the mtDNA and/or having lost their mtDNA.
From a pre-culture in selective medium (SC-TRP, 2% ethanol (v/v)) of the mutated mip1 strain, 2.10^5 cells/mL were seeded in 2 mL of rich YPD medium (1% Yeast Extract, 0.5% Bacto Peptone, 2% Glucose) in the presence of 32 μM clofilium tosylate or DMSO. The cells were then incubated at 28° C. for two cycles of 24 hours. The cells were then diluted to have about 200 to 250 cells per dish and spread on differential synthetic medium (SC-TRP, 0.3% glucose, 2% ethanol). The number of small colonies was calculated after 6 days of incubation at 28° C. (Baruffini, E., Lodi, T., Dallabona, C., Puglisi, A., Zeviani, M. and Ferrero, I. (2006) Genetic and Chemical rescue of the Saccharomyces cerevisiae phenotype induced by mitochondrial DNA polymerase mutations associated with progressive external ophthalmoplegia in humans. Hum. Mol. Genet., 15, 2846-2855).
The effect of the clofilium tosylate on the production of small colonies was measured in 8 recessive mip1 mutants:
an in 3 dominant mip1 mutants: • Y757C (mutated domain: polymerase) • K749R (mutated domain: polymerase) • E698G (mutated domain: polymerase)

Series [4] deals with control fibroblasts and fibroblasts from a patient with a mutation on each allele of the POLG gene. As to the kind of experiment: Maximum non-toxic concentration on fibroblast cultures (xCELLigence cell index). In kind it is cell-based, human. Particulars: 140 h, 2.5-10 μM tested. How it is done:
Skin fibroblasts from the control and from the patient were cultured in DMEM Galactose (DMEM free of glucose (Life Technologies) supplemented with 10 mM galactose, 10% foetal bovine serum, 200 U/mL penicillin, 200 U/mL streptomycin). Uridine (50 μg/mL) and sodium pyruvate (2.5 mM) were added to the culture medium to maintain the cells expressing a deficiency of the respiratory chain. The cells were incubated in a controlled atmosphere at 37° C. and 5% CO2.
Cell growth of patient and control fibroblasts was measured continuously for 140 h by use of an xCELLigence apparatus (ACEA Biosciences) in 96-well plates. The background noise of the signal was measured with 50 μL of culture medium per well. 50 μL of medium containing 1350 fibroblasts were then added to each well. The impedance measurement was taken every minute for 9 h and then every 15 minutes until the end of analysis.
Clofilium tosylate was diluted in 0.1% DMSO and used at different concentrations (2.5 μM, 5 μM, 10 μM) in a total volume of 50 μL. Toxic concentrations of clofilium tosylate were determined by adding the drug from the point of cell seeding. For each drug concentration and each control, the analysis was carried out in triplicate on 96-well plates. A mathematical algorithm was used to convert the impedance signal into cell index (CI). […]

Series [5] relates to mitochondrial proteins POLG, TFAM and ATP5B. Nature of the series: Amount of POLG, TFAM and ATP5B proteins in fibroblasts (western blot), cell growth conditions. In kind it is cell-based, human. Particulars: 0.5 μM or 1.0 μM, control and patient fibroblasts. How it is done:
Protein fractions of total extracts of control fibroblasts and of fibroblasts from a patient with a mutation on each allele of the POLG gene cultured in the presence of 0.1% DMSO or with 0.5 μM or 1.0 μM clofilium tosylate were analysed by electrophoresis.
Skin fibroblasts from the control and from the patient were cultured to 100% confluence in a complete Dulbecco's Modified Eagle Medium (DMEM) high glucose medium (4.5 g/L D-glucose, 110 mg/L sodium pyruvate, 10% foetal bovine serum, 1% penicillin/streptomycin from the stock solution containing 10,000 I.U. penicillin and 10,000 μg/mL streptomycin) at 37° C. under 5% CO2. At confluence, the cultures were trypsinised and placed in culture at 30% confluence in a complete DMEM high glucose medium supplemented with either 0.1% DMSO or with 0.5 μM or 1.0 μM clofilium tosylate. The cells were then incubated at 37° C. under 5% CO2 and harvested at 100% confluence. After trypsinisation, the total proteins of the fibroblasts were extracted and analysed by western blot. The proteins studied were the POLG protein (subjected to SDS/PAGE gel analysis (6%)), the mitochondrial proteins ATP5B and TFAM, and the cytosolic protein TUB3A as batch control.
(In western blotting, separated proteins are transferred to a membrane and probed.)

In the case of `CCCCCCC[N+](CC)(CC)CCCCc1ccc(Cl)cc1.Cc1ccc(S(=O)(=O)[O-])cc1` [clofilium tosylate], in series [1], the “respiration of yeast cells (O2 consumption)” value was “breathed better”. Further, the “resistance to ethidium bromide” value in series [2] is recorded as “increased resistance”. In series [3] (32 μM vs DMSO), the “production of small colonies of the mutant mip1^G651S yeast strain” value is “reduced the production of small colonies”. The “production of cells not breathing (small colonies) in recessive and dominant mip1 mutants” value in series [3] (32 μM, irrespective of mutated MIP1 domain, except mutations producing more than 90% of small colonies) was “reduced the production of cells not breathing”. In addition, the “maximum approved (non-toxic) concentration” value in series [4] was 2.5 µM. Also, the “amount of mitochondrial proteins POLG, TFAM and ATP5B” value in series [5] is “increased”.
